Like-named read-outs stand apart in the source and are kept apart here.
How the values were obtained:
[1] = target: T1, glutathione-S-transferase (GST) tagged LXRbeta LBD (ligand binding domain) (Homo sapiens, UniProt P55055); assay: LanthaScreen TR-FRET Liver X Receptor Coactivator Assay, co-activator recruitment to LXRbeta LBD; format: biochemical
T1 construct: purchased Invitrogen pv4658.pps
T1 sequence (P55055 222-460 limits assumed): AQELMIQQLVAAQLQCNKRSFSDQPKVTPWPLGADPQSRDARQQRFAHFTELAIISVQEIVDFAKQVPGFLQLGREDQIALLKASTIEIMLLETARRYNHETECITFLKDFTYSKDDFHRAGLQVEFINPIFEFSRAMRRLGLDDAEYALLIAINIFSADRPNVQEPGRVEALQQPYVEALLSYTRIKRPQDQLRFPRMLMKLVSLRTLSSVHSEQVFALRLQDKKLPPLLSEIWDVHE
Method: (§1) Potency (Inflection Point, IP) and efficacy (Emax) are evaluated via compound-induced co-activator recruitment to glutathione-S-transferase (GST) tagged LXRbeta and LXRalpha LBD (ligand binding domain) proteins in relation to reference dual agonist compound T0901317 (N-(2,2,2-Trifluoroethyl)-N-[4-[2,2,2-trifluoro-1-hydroxy-1-(trifluoromethyl)ethyl] phenyl] benzenesulfonamide) using the LanthaScreen™ TR-FRET Liver X Receptor Coactivator Assays according to manufacturer's instructions (Invitrogen catalog number pv4658.pps and pv4655). While running the LanthaScreen™ TR-FRET Liver X Receptor Coactivator Assay, LXR alpha-LBD or LXR beta-LBD was added to ligand test compounds followed by addition of a mixture of a fluorescein-labelled coactivator peptide and terbium-conjugated anti-GST antibody. After an incubation period at room temperature, TR-FRET (time-resolved fluorescence resonance energy transfer) was measured using a filter-based instrument capable of TR-FRET, e.g. PerkinElmer Envision.

[2] = target: T2, glutathione-S-transferase (GST) tagged LXRalpha LBD (ligand binding domain) (Homo sapiens, UniProt Q13133); assay: LanthaScreen TR-FRET Liver X Receptor Coactivator Assay, co-activator recruitment to LXRalpha LBD; format: biochemical; settings: for LXR alpha IP (nM) / EC50: potency (Inflection Point, IP), co-activator recruitment to LXRalpha LBD, in relation to T0901317
T2 construct: purchased Invitrogen pv4655
T2 sequence (Q13133 209-447 limits assumed): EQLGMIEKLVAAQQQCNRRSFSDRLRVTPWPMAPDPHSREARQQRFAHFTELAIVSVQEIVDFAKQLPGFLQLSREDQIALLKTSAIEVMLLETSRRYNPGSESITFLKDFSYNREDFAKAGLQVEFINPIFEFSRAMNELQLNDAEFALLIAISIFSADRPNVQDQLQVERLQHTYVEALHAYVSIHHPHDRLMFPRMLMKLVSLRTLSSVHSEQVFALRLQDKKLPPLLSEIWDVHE
Method: as §1

[3] = efficacy at max dose, in relation to reference dual agonist T0901317, read-out: LXR beta Activity @ max dose (%)
[4] = potency (Inflection Point, IP), co-activator recruitment to LXRbeta LBD, in relation to T0901317, read-out: LXR beta IP
[5] = efficacy at max dose, in relation to reference dual agonist T0901317, read-out: LXR alpha Activity @ max dose (%)

SMILES	Emax [1, 3] [%]	EC50 [1, 4] [nM]	Emax [2, 5] [%]	LXR alpha IP (nM) [2]	EC50 ([2]; read-out: LXR alpha IP) [nM]	also measured
CN(C)C(=O)c1ccc(N2CCC(CC3CN(C(=O)C(O)(c4cccc(C(F)(F)F)c4)C(F)(F)F)C3)CC2)cc1Cl (centres unmarked) [Example 2-66, 2-chloro-N,N-dimethyl-4-{4-[(1-{3,3,3-trifluoro-2-hydroxy-2-[3-(trifluoromethyl)phenyl]propanoyl}azetidin-3-yl)methyl]piperidin-1-yl}benzamide]	69	50	14	NO IP		
CO[C@](C(=O)N1CCC(OC2CCN(c3ccc(C(=O)N(C)C)c(Cl)c3)CC2)CC1)(c1ccccc1)C(F)(F)F [Example 2-20, 2-chloro-N,N-dimethyl-4-[4-({1-[(2S)-3,3,3-trifluoro-2-methoxy-2-phenylpropanoyl]piperidin-4-yl}oxy)piperidin-1-yl]benzamide]	81	335	4	NO IP		
CN(C)C(=O)c1ccc(N2CCC(CC3CCN(S(=O)(=O)c4cc(F)cc(C(F)(F)F)c4)CC3)CC2)cc1Cl [Example 13-15, 2-chloro-4-{4-[(1-{[3-fluoro-5-(trifluoro-methyl)phenyl]-sulfonyl}piperidin-4-yl)methyl]piperidin-1-yl}-N,N-dimethylbenzamide]						EC50 ([1]; co-activator recruitment to GST-LXRbeta LBD, TR-FRET, read-out: LXR beta IP (Inflection Point, potency)): 171 nM; Emax ([1]; efficacy in relation to reference dual agonist T0901317, read-out: LXR beta Activity @ max dose): 32%; LXR alpha IP (Inflection Point, potency) ([2]; co-activator recruitment to GST-LXRalpha LBD, TR-FRET): NO IP; Emax ([2]; efficacy in relation to reference dual agonist T0901317, read-out: LXR alpha Activity @ max dose): 0%
CN(C)C(=O)c1ccc(N2CCC(CC3CCCN(C(=O)[C@](O)(c4ccccc4)C(F)(F)F)CC3)CC2)cc1Cl (stereo partly drawn) [Example 2-160, 2-chloro-N,N-dimethyl-4-[4-({1-[(2R)-3,3,3-trifluoro-2-hydroxy-2-phenyl-propanoyl]azepan-4-yl}methyl)piperidin-1-yl]benzamide]	33	26	12	NO IP		
CN(C)C(=O)c1ccc(N2CCC(CC3CCN(C(=O)C(O)(c4ccccc4)C4CCC4)CC3)CC2)nc1Cl (centres unmarked) [Example 7-97, 2-chloro-6-[4-({1-[cyclobutyl(hydroxy)phenylacetyl]piperidin-4-yl}methyl)piperidin-1-yl]-N,N-dimethylpyridine-3-carboxamide]						EC50 ([1]; LXR beta IP (nM), potency (Inflection Point, IP), co-activator recruitment to LXRbeta LBD, in relation to T0901317): 40 nM; Emax ([1]; read-out: LXR beta Activity @ max dose (%)): 98%; EC50 ([2]; LXR alpha IP (nM)): 1180 nM; Emax ([2]; read-out: LXR alpha Activity @ max dose (%)): 38%
CN(C)C(=O)c1ccc(N2CCC(CC3CN(C(=O)C(N)(c4ccccc4)C(F)(F)F)C3)CC2)cc1Cl (centres unmarked) [Example 2-69, 4-(4-{[1-(2-amino-3,3,3-trifluoro-2-phenyl-propanoyl)azetidin-3-yl]methyl}piperidin-1-yl)-2-chloro-N,N-dimethyl-benzamide]	112	1110	16	NO IP		
CN(C)C(=O)c1ccc(N2CCC(CC3(C)CCN(C(=O)[C@](O)(c4cccc(F)c4)C(F)(F)F)CC3)CC2)cc1Cl [Example 2-57, 2-chloro-N,N-dimethyl-4-[4-({4-methyl-1-[(2R)-3,3,3-trifluoro-2-(3-fluorophenyl)-2-hydroxy-propanoyl]piperidin-4-yl}methyl)piperidin-1-yl]benzamide]	67	5	27		37	
CN(C)C(=O)c1ccc(N2CCC(CC3CCN(C(=O)C(N)(c4cccc(Cl)c4)C(F)(F)F)CC3)CC2)cc1Cl (centres unmarked) [Example 2-167, 4-[4-({1-[2-amino-2-(3-chlorophenyl)-3,3,3-trifluoro-propanoyl]piperidin-4-yl}methyl)piperidin-1-yl]-2-chloro-N,N-dimethyl-benzamide]	75	37	18	NO IP		
CCN(C)C(=O)c1ccc(N2CCC(CC3CCN(C(=O)[C@](O)(c4ccccc4)C(F)(F)F)CC3)CC2)cc1Cl [Example 4-12, 2-chloro-N-ethyl-N-methyl-4-[4-({1-[(2R)-3,3,3-trifluoro-2-hydroxy-2-phenylpropanoyl]piperidin-4-yl}methyl)piperidin-1-yl]benzamide]	83	14	34		166	
COc1cccc(C(O)(C(=O)N2CCC(CC3CCN(c4ccc(C(=O)N(C)C)c(Cl)c4)CC3)CC2)C(F)(F)F)c1F (centres unmarked) [Example 2-41, 2-chloro-N,N-dimethyl-4-[4-({1-[3,3,3-trifluoro-2-(2-fluoro-3-methoxyphenyl)-2-hydroxy-propanoyl]piperidin-4-yl}methyl)piperidin-1-yl]benzamide]	63	14	10	NO IP		

The next lines start with results.

Emax [1, 3] [%]	EC50 [1, 4] [nM]	Emax [2, 5] [%]	LXR alpha IP (nM) [2]	EC50 ([2]; read-out: LXR alpha IP) [nM]	SMILES	also measured
55	5	13	NO IP		COc1cccc([C@@](O)(C(=O)N2CCC(CC3CCN(c4ccc(C(N)=O)c(Cl)c4)CC3)CC2)C(F)(F)F)c1 [Example 12-4, 2-chloro-4-[4-({1-[(2R)-3,3,3-trifluoro-2-hydroxy-2-(3-methoxyphenyl)-propanoyl]piperidin-4-yl}methyl)piperidin-1-yl]benzamide]	
76	4	38		32	NC(=O)c1ccc(N2CCC(CC3CCN(C(=O)[C@](O)(c4cccc(Cl)c4)C(F)(F)F)CC3)CC2)cc1Cl [Example 12-5, 2-chloro-4-[4-({1-[(2R)-2-(3-chlorophenyl)-3,3,3-trifluoro-2-hydroxypropanoyl]-piperidin-4-yl}-methyl)piperidin-1-yl]benzamide]	
65	12	24		120	CCc1cccc([C@@](O)(C(=O)N2CCC(CC3CCN(c4ccc(C(=O)NC)c(Cl)n4)CC3)CC2)C(F)(F)F)c1 [Example 7-148, 2-chloro-6-[4-({1-[(2R)-2-(3-ethylphenyl)-3,3,3-trifluoro-2-hydroxypropanoyl]piperidin-4-yl}methyl)piperidin-1-yl]-N-methylpyridine-3-carboxamide]	
59	5	9		141	Cc1cccc(C(O)(C(=O)N2CCC(CC3CCN(c4ccc(C(=O)N(C)C)c(Cl)n4)CC3)CC2)C(F)(F)F)c1 (centres unmarked) [Example 7-55, 2-chloro-N,N-dimethyl-6-[4-({1-[3,3,3-trifluoro-2-hydroxy-2-(3-methylphenyl)propanoyl]piperidin-4-yl}methyl)piperidin-1-yl] pyridine-3-carboxamide]	
102	13	47		173	CNC(=O)c1ccc(N2CCC(CC3CCN(C(=O)[C@](O)(c4ccccc4)C(F)(F)F)CC3)CC2)nc1Cl [Example 7-141, 2-chloro-N-methyl-6-[4-({1-[(2R)-3,3,3-trifluoro-2-hydroxy-2-phenylpropanoyl]piperidin-4-yl}methyl)piperidin-1-yl]pyridine-3-carboxamide]	
54	1230	0	NO IP		COc1cccc([C@@](O)(C(=O)N2CCC(CC3CN(c4ccc(C(=O)N(C)C)c(OC)n4)C3)CC2)C(F)(F)F)c1 [Example 7-23, 2-methoxy-N,N-dimethyl-6-[3-({1-[(2R)-3,3,3-trifluoro-2-hydroxy-2-(3-methoxyphenyl)propanoyl]piperidin-4-yl}methyl)azetidin-1-yl]pyridine-3-carboxamide]	
77	20	44		343	CNC(=O)c1ccc(N2CCC(CC3CCN(C(=O)[C@](O)(c4ccccc4)C(F)(F)F)CC3)CC2)cc1Cl [Example 7-25, 2-chloro-N-methyl-4-[4-({1-[(2R)-3,3,3-trifluoro-2-hydroxy-2-phenylpropanoyl]piperidin-4-yl}methyl)piperidin-1-yl]benzamide]	

Source: patent US10752587B2, “Homobispiperidinyl derivatives as liver X receptor beta agonists, compositions and their use” (Merck Sharp & Dohme Corp., priority 2015, dated 2020)
